How the values were obtained:
mES cells = test: Cell cycle arrest and cell cycle structure by flow cytometry of PI-stained mES cells; format: cell-based, murine; conditions: up to concentrations of 140 μM
Procedure: Cdk2 activity levels determine the rate of mES cell division but not cell cycle structure. (A) mES cells were grown for up to 8 passages in the presence (+) or absence (−) of Ro09-3033 (2 μM). Cdk2, cyclin E and cyclin B-associated H1 kinase activities were assayed as described previously after immunoprecipitation from whole cell lysates (100 μg protein). Input loading control was determined by probing immunoblots (15 μg lysate protein) with α-Cdk2 and α-Oct4 polyclonal antibodies. Quantitation of H1 kinase activities are shown in the lower panel as the average of two independent experiments. (B) Northern blot analysis of Oct4, Rex-1 and GAPDH transcripts from mES cells grown with (+) or without (−) inhibitor (2 μM) for the number of passages indicated. RNA was resolved by agarose gel electrophoresis, blotted and hybridized with [^32P]-labelled Oct4, Rex-1 and GAPDH probes (15 μg total RNA per lane). […] (C) After 8 passages in the presence (+) or absence (−) of 2 μM Ro09-3033, mES and mEPL cells were fixed and stained with PI and analysed by flow cytometry. […] Generation times of mEPL cells were not determined in this experiment.
In preparation for flow cytometry, cells were resuspended in 300 μl of PBS supplemented with 1% FCS. […] Cells were stained by the addition of 2.5 mg/ml propidium iodide (Sigma) and 0.5 mg/ml RNAase A and analysed on a Beckman-Coulter flow cytometer with WinMDi software.

[1] = accumulation of cells at G1/S or G2/M, reference (31); cited from earlier work

CC[C@H](CO)Nc1nc(NCc2ccccc2)c2ncn(C(C)C)c2n1 [roscovitine]
Effect on cell division times or cell cycle structure in mES cells (mES cells): no effect
Concentration range in which it typically acts as a cell cycle specific inhibitor [1]: 20 to 30 µM
